In ChEMBL document CHEMBL1152719, “Non-urea functionality as the primary pharmacophore in soluble epoxide hydrolase inhibitors” (Bioorg Med Chem Lett, 2009):

Target: T1, Bifunctional epoxide hydrolase 2 (Homo sapiens, UniProt P34913)
T1 sequence (P34913 whole entry): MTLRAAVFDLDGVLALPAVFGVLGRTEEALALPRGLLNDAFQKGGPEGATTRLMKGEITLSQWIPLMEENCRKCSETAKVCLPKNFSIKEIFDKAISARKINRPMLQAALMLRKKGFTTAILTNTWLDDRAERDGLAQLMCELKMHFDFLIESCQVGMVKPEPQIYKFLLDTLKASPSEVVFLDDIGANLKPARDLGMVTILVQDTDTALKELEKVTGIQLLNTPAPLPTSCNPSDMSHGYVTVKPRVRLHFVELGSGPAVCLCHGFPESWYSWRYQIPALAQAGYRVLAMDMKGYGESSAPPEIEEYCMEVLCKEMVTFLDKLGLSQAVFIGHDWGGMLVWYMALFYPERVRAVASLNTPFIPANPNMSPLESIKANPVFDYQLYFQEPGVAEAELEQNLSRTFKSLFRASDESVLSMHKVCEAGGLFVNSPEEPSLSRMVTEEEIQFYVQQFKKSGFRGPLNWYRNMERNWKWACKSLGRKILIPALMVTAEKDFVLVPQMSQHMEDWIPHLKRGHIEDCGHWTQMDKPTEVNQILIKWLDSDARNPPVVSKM
Experiment: Inhibition of soluble epoxide hydrolase by fluorescence assay

| Structure (SMILES) | IC50 [nM] |
| --- | --- |
| O=C(CC1CCCCC1)Nc1cccc(OCCCN2CCOCC2)c1 | 28 |
| O=C(Nc1cccc(OCCCN2CCOCC2)c1)C12CC3CC(CC(C3)C1)C2 | 88 |
| O=C(CC12CC3CC(CC(C3)C1)C2)Nc1cccc(OCCCN2CCOCC2)c1 | 2.5 |
| O=C(Nc1cccc(OCCCN2CCOCC2)c1)C1CCCCC1 | 390 |
| O=C(Nc1ccc(C(F)(F)F)cc1)Nc1cccc(OCCCN2CCOCC2)c1 | 1.2 |
| O=C(Nc1ccc(OC(F)(F)F)cc1)Nc1cccc(OCCCN2CCOCC2)c1 | 8.2 |
| O=C(Nc1cccc(OCCCN2CCOCC2)c1)NC12CC3CC(CC(C3)C1)C2 | 0.8 |
| O=C(Nc1cccc(OCCCN2CCOCC2)c1)NC1CCCCC1 | 3.9 |
| O=C(Cc1ccc(C(F)(F)F)cc1)Nc1cccc(OCCCN2CCOCC2)c1 | 55 |
| S=C(Nc1cccc(OCCCN2CCOCC2)c1)NC12CC3CC(CC(C3)C1)C2 | 22 |
| O=C(Nc1cccc(OCCCN2CCOCC2)c1)C(O)CCC12CC3CC(CC(C3)C1)C2 (centres undefined) | 530 |
| O=C(Nc1cccc(OCCCN2CCOCC2)c1)C(=O)C12CC3CC(CC(C3)C1)C2 | > 2000 |
| O=C(CCC12CC3CC(CC(C3)C1)C2)C(=O)Nc1cccc(OCCCN2CCOCC2)c1 | 48 |
| O=S(=O)(Nc1cccc(OCCCN2CCOCC2)c1)NC12CC3CC(CC(C3)C1)C2 | 3600 |
| O=C(Nc1cccc(OCCCN2CCOCC2)c1)C(O)C12CC3CC(CC(C3)C1)C2 (centres undefined) | > 2000 |
| O=C(Nc1cccc(OCCCN2CCOCC2)c1)C(O)CC12CC3CC(CC(C3)C1)C2 (centres undefined) | 23 |
| O=C(Nc1cccc(OCCCN2CCOCC2)c1)c1ccc(C(F)(F)F)cc1 | 93 |
| O=C(CC12CC3CC(CC(C3)C1)C2)C(=O)Nc1ccc(OCc2ccccc2)cc1 | 1110 |
| O=C(CCC12CC3CC(CC(C3)C1)C2)C(=O)NCCc1ccc(OCc2ccccc2)cc1 | 685 |
| O=C(NCCc1ccc(OCc2ccccc2)cc1)NCCC12CC3CC(CC(C3)C1)C2 | 15 |
| O=C(NCCc1ccc(OCc2ccccc2)cc1)C(O)CC12CC3CC(CC(C3)C1)C2 (centres undefined) | 185 |
| O=C(NCCc1ccc(OCc2ccccc2)cc1)C(O)CCC12CC3CC(CC(C3)C1)C2 (centres undefined) | 11 |
| O=C(Nc1ccc(OCc2ccccc2)cc1)C(O)C12CC3CC(CC(C3)C1)C2 (centres undefined) | 310 |
| O=C(Nc1ccc(OCc2ccccc2)cc1)C(O)CC12CC3CC(CC(C3)C1)C2 (centres undefined) | 270 |
| O=C(CC12CC3CC(CC(C3)C1)C2)C(=O)NCCc1ccc(OCc2ccccc2)cc1 | 1540 |
| O=C(Nc1ccc(OCc2ccccc2)cc1)C(=O)C12CC3CC(CC(C3)C1)C2 | 210 |
| O=S(=O)(Nc1cccc(OCCCN2CCOCC2)c1)c1ccc(C(F)(F)F)cc1 | 15000 |
| O=C(CNC12CC3CC(CC(C3)C1)C2)Nc1cccc(OCCCN2CCOCC2)c1 | 110 |
| O=C(CC12CC3CC(CC(C3)C1)C2)C(=O)Nc1cccc(OCCCN2CCOCC2)c1 | 49 |
